Measured values published in US4246342A, “Process for the manufacture of pyruvate oxidase, and analytical method and kit for the use of the same” (Toyo Jozo Kabushiki Kaisha, priority 1978, dated 1981).

How the values were obtained:
[1] = biological target: T1, pyruvate oxidase (IFO-12219) (Aerococcus viridans, UniProt A0ABP2I6X2); experiment: Effect of several substances added on the enzyme activity; format: biochemical, Aerococcus viridans IFO-12219; details: 5 mM of the substance added instead of MgCl2 in the assay system; enzyme from IFO-12219; MgCl2 = 100
T1 sequence (A0ABP2I6X2 1-592): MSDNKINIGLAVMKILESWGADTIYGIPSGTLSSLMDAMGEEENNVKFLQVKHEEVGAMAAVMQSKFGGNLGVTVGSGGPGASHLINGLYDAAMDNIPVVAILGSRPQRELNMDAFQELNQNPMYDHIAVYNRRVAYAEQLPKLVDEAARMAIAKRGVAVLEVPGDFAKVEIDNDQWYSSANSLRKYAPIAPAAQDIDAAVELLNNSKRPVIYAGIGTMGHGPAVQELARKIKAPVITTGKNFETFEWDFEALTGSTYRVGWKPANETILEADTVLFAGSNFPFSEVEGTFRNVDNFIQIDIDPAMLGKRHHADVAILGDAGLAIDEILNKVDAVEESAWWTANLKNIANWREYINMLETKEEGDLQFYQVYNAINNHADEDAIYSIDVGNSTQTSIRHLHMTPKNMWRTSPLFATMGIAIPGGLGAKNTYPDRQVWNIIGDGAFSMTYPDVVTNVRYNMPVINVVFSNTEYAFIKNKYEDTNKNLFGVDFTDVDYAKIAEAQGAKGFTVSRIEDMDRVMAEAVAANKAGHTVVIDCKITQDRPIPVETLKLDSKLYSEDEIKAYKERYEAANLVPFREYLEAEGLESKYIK
Description: (§1) (a) Effect of several substances on the enzyme activity is examined by adding 5 mM of the substance indicated below instead of MgCl2 in the assay system.
(§2) The assay method of pyruvate oxidase of the present invention uses a reaction mixture as follows: […]
(§3) The above reaction mixture (1.0 ml) is pre-incubated at 37° C. for 3 minutes. To this solution is added the enzyme solution (20 μl) and incubated at 37° C. for 10 minutes. 0.1 M citrate buffer (pH 6.0, 2 ml) containing 0.1 M EDTA is added to stop the reaction. The violet color formed is measured by colorimetric method at 565 nm.
(§4) A unit (1 unit, 1 U) of enzyme activity is defined as the activity which generates 1 μmole of hydrogen peroxide per minute.

[2] = tested on: pyruvate oxidase (B-0667); experiment: as above; format: biochemical, Pediococcus sp. B-0667; details: 5 mM of the substance added instead of MgCl2 in the assay system; enzyme from B-0667; MgCl2 = 100
Description: as §1, §2, §3, §4

[3] = tested on: pyruvate oxidase (B-0668); experiment: as above; format: biochemical, Streptococcus sp. B-0668; details: 5 mM of the substance added instead of MgCl2 in the assay system; enzyme from B-0668; MgCl2 = 100
Description: as §1, §2, §3, §4

[4] = biological target: T2, pyruvate oxidase (IFO-12317) (Aerococcus viridans, UniProt A0ABP2I6X2); experiment: as above; format: biochemical, Aerococcus viridans IFO-12317; details: 5 mM of the substance added instead of MgCl2 in the assay system; enzyme from IFO-12317; MgCl2 = 100
T2 sequence (A0ABP2I6X2 1-592): T1 sequence (A0ABP2I6X2 1-592)
Description: as §1, §2, §3, §4

pyruvate oxidase = experiment: Effect of substances on the enzyme, summary statements for the four strains; format: biochemical; details: summary in words; for Effect on the enzyme (inhibited / activated): 5 mM substance; for Requirement of the enzyme for the substance (cofactor / substrate): elimination from the assay system
Description: as §1
0.1 M dimethylglutarate-NaOH buffer is used in the case of phosphate elimination.
The assay method of pyruvate oxidase of the present invention uses a reaction mixture as follows:
as §3

[5] = tested on: pyruvate oxidase (B-0668); experiment: Effect of elimination of a substance from the assay system on the enzyme activity; format: biochemical, Streptococcus sp. B-0668; details: enzyme from B-0668, no elimination = 100, 0.1 M dimethylglutarate-NaOH buffer for phosphate elimination
Description: (§5) (b) Effect of elimination of the following substance from the assay system on the enzyme activity is shown below. 0.1 M dimethylglutarate-NaOH buffer is used in the case of phosphate elimination.
as §2, §3, §4

[6] = biological target: T1, pyruvate oxidase (IFO-12219); experiment: as above; format: biochemical, Aerococcus viridans IFO-12219; details: enzyme from IFO-12219, no elimination = 100, 0.1 M dimethylglutarate-NaOH buffer for phosphate elimination
Description: as §5, §2, §3, §4

[7] = tested on: pyruvate oxidase (B-0667); experiment: as above; format: biochemical, Pediococcus sp. B-0667; details: enzyme from B-0667, no elimination = 100, 0.1 M dimethylglutarate-NaOH buffer for phosphate elimination
Description: as §5, §2, §3, §4

[8] = biological target: T2, pyruvate oxidase (IFO-12317); experiment: as above; format: biochemical, Aerococcus viridans IFO-12317; details: enzyme from IFO-12317, no elimination = 100, 0.1 M dimethylglutarate-NaOH buffer for phosphate elimination
Description: as §5, §2, §3, §4

Row | Compound | Relative activity (%) [1] [%] | Relative activity (%) [2] [%] | Relative activity (%) [3] [%] | Relative activity (%) [4] [%] | Effect on the enzyme (inhibited / activated) (pyruvate oxidase) | Relative activity (%), substance eliminated [5] [%] | Relative activity (%), substance eliminated [6] [%] | Requirement of the enzyme for the substance (cofactor / substrate) (pyruvate oxidase) | Relative activity (%), substance eliminated [7] [%] | Relative activity (%), substance eliminated [8] [%]
1 | [Ba+2].[Cl-].[Cl-] [BaCl2] | 23.9 | 20.6 | 58.8 | 28.8 | – | – | – | – | – | –
2 | [Ca+2].[Cl-].[Cl-] [CaCl2] | 83.4 | 69.4 | 75.0 | 78.7 | activated | – | – | – | – | –
3 | [Cl-].[Cl-].[Co+2] [CoCl2] | 85.0 | 81.3 | 81.1 | 84.0 | activated | – | – | – | – | –
4 | O=C(O)CN(CCN(CC(=O)O)CC(=O)O)CC(=O)O [EDTA, ethylene-diaminetetraacetic acid] | 0 | 0 | 0 | – | inhibited | – | – | – | – | –
5 | Cc1cc2nc3c(=O)[nH]c(=O)nc-3n(C[C@H](O)[C@H](O)[C@H](O)COP(=O)(O)OP(=O)(O)OC[C@H]3O[C@@H](n4cnc5c(N)ncnc54)[C@H](O)[C@@H]3O)c2cc1C [FAD, flavin adenine dinucleotide] | – | – | – | – | – | 100 | 32.7 | requires | 33.9 | –
6 | [Cl-].[Cl-].[Mg+2] [MgCl2] | 100 | 100 | 100 | 100 | activated | – | – | – | – | –
7 | [Cl][Mn][Cl] [MnCl2] | 116.2 | 129.1 | 102.7 | 111.0 | activated | – | – | – | – | –
8 | Cc1ncc(C[n+]2csc(CCO[P@](=O)(O)OP(=O)(O)O)c2C)c(N)n1 [Thiaminepyrophosphate, thiamine pyrophosphate] | – | – | – | – | – | 0 | 0 | requires | 0 | –
9 | [Cl-].[Cl-].[Zn+2] [ZnCl2] | 14.9 | 16.0 | 38.2 | 22.8 | – | – | – | – | – | –
10 | phosphate | – | – | – | – | – | 0 | 0 | requires | 0 | 0
